Experimental data as given in PMC12703428, “Development of Granzyme A Turn‐ON Fluorescent Activity‐Based Probes” (Chembiochem, 2025).
Square brackets hold non-standard residues; d marks the D form. Ends that are not written are not given here. Oic = O=C(O)[C@@H]1C[C@@H]2CCCC[C@@H]2N1; Tic = O=C(O)[C@@H]1Cc2ccccc2CN1

Biological target: T1, mouse GzmA (mGzmA) (Mus musculus, UniProt P11032)
T1 construct: CSB-EP010081MO for active, mature form; purchased Cusabio CSB-EP010081MO
T1 sequence (P11032 29-260): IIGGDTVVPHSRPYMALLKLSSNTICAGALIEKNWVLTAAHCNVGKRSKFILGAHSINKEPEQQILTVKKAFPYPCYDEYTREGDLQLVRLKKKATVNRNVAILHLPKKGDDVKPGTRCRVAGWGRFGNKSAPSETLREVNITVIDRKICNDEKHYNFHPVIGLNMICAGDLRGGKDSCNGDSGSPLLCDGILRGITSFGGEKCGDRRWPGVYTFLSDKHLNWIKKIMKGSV
Assay: In-gel fluorescence labeling of mGzmA
Type: biochemical
Settings: mGzmA 1 μM, 24 h, 37 °C; for Labeling of mGzmA (in-gel Cy5 fluorescence): probe 200 nM or 1 μM
Experimental: Figure 3 GzmA ABPs covalently and competitively label active human and mouse GzmA. […] Recombinant hGzmA (100 nM) was incubated with varying concentrations of each ABP at 37 °C. B) Competitive labeling of hGzmA. Recombinant hGzmA (100 nM) was preincubated with covalent inhibitors 1 or 2 (5 μM) for 2 h, followed by labeling with ABPs 3 –5 (50 nM) for 2 h at 37 °C. Note: Pro‐form of hGzmA (the first lane) is not effectively stained by SYPRO‐Ruby. C) Structure of qABP 6. D) Quenched natures of 5 and 6. […] F) Labeling of mGzmA (1 μM) with 5 and 6 (1 μM, 24 h, 37 °C). Protein samples were analyzed by SDS‐PAGE and in‐gel fluorescence scanning for Cy5 signal and SYPRO Ruby staining.
Sulfo-Cy5 N N P O 1 µM 100 nM
7 HN NH2 In-gel fluorescence: […]
mGzmA In-gel fluorescence: mGzmA In-gel fluorescence:
Supplementary Figure 1. (A) Chemical structure of qABP 7. (B) Labeling of mGzmA (1 µM, 24 h, 37 °C) and hGzmA (100 nM, 2 h, 37 °C) by 1 µM or 100 nM of 5, 6, and 7, respectively. (C) Labeling of mGzmA (1 µM, 24 h, 37 °C) by 200 nM of 5, 6, and 7. […] Protein samples were analyzed by SDS-PAGE and in-gel fluorescence scanning for Cy5 signal. […]
Briefly, hGzmA (50 nM) was incubated with either inhibitor 1 or 2 (200 nM), and GzmA fluorogenic substrate […] (100 µM) in 50 mM Tris, 150 mM NaCl, 0.01% Triton X-100 (pH 8) for 15 hr at 37 °C. Recorded fluorescence at Ex/Em: 380/460 nm for residual GzmA […]
Cat. No. CRL-2570) and 4T1 (ATCC Cat. No. CRL-2539) cells were cultured in RPMI supplemented with 10% fetal bovine serum (FBS), 1% penicillin/streptomycin (PS), and 2 mM L-glutamine, while HEK293T and MDA-MB-231 cells (ATCC Cat. No. HTB-26) were cultured in DMEM supplemented likewise as described above. […] The supernatant was collected, and protein concentration was measured using a Pierce BCA protein assay. […]
C. In-gel fluorescence imaging […]
Conditions for probe/inhibitor treatment for in-gel fluorescence analysis: Inhibitors and probes were incubated with active (or pro-) GzmA followed by treatment with 4X SDS reducing sample buffer. […]

Row | Substance | Labeling of mGzmA (in-gel Cy5 fluorescence) | Concentration dependence of labeling of mGzmA (probe 1, 0.5, 0.2 µM, in-gel fluorescence)
1 | GFFR [compound 7] | lower labeling efficiency for both hGzmA and mGzmA compared with probes 5 and 6 | 
2 | [Tic]G[Oic]R [compound 6] | efficiently (and slightly more strongly than 5) labeled | concentration‐dependent labeling of mGzmA
